By IC50 is commonly meant the midpoint of a concentration-inhibition curve. Higher therefore signals weaker potency.

The record followed here is patent US9023882B2, “5-membered nitrogen containing heterocyclic derivatives and pharmaceutical compositions comprising the same” (Kissei Pharmaceutical Co., Ltd., priority 2007, dated 2015).

The target of this assay is Xanthine oxidase (from bovine milk, Sigma) (Bos taurus (Bovine), UniProt P80457). The assay can be described thus: Xanthine oxidase inhibitory activity. The assay is classed as biochemical. To be noted: absorbance at 290 nm. As to the method:
(1) Preparation of Test Compounds
Test compounds were dissolved in DMSO (Wako) at 40 mM concentration and then diluted to intended concentrations with phosphate-buffered saline (PBS).
(2) Method for Measurement
Xanthine oxidase (from bovine milk, Sigma) was prepared with phosphate-buffered saline (PBS) at 0.02 units/mL, and then the solution was added to 96 well plates at 50 μL/well. In addition, test compounds diluted with PBS were added at 50 μL/well. Xanthine (Wako) at 200 μM prepared with PBS was added at 100 μL/well, and the reaction was conducted for 10 minutes at room temperature. Absorbance at 290 nm was measured using a microplate reader SpectraMax Plus 384 (Molecular device). The absorbance under a condition without xanthine is 0%, and control without test compounds is 100%. Fifty % inhibitory concentration of a test compound (IC50) was calculated (Tables 91 to 92). Ex. No in the table indicates Example number.

Where [1] appears, read: 0.02 units/mL, xanthine 200 μM, 10 minutes at room temperature.

Sequence of Xanthine oxidase (from bovine milk, Sigma) (P80457 whole entry): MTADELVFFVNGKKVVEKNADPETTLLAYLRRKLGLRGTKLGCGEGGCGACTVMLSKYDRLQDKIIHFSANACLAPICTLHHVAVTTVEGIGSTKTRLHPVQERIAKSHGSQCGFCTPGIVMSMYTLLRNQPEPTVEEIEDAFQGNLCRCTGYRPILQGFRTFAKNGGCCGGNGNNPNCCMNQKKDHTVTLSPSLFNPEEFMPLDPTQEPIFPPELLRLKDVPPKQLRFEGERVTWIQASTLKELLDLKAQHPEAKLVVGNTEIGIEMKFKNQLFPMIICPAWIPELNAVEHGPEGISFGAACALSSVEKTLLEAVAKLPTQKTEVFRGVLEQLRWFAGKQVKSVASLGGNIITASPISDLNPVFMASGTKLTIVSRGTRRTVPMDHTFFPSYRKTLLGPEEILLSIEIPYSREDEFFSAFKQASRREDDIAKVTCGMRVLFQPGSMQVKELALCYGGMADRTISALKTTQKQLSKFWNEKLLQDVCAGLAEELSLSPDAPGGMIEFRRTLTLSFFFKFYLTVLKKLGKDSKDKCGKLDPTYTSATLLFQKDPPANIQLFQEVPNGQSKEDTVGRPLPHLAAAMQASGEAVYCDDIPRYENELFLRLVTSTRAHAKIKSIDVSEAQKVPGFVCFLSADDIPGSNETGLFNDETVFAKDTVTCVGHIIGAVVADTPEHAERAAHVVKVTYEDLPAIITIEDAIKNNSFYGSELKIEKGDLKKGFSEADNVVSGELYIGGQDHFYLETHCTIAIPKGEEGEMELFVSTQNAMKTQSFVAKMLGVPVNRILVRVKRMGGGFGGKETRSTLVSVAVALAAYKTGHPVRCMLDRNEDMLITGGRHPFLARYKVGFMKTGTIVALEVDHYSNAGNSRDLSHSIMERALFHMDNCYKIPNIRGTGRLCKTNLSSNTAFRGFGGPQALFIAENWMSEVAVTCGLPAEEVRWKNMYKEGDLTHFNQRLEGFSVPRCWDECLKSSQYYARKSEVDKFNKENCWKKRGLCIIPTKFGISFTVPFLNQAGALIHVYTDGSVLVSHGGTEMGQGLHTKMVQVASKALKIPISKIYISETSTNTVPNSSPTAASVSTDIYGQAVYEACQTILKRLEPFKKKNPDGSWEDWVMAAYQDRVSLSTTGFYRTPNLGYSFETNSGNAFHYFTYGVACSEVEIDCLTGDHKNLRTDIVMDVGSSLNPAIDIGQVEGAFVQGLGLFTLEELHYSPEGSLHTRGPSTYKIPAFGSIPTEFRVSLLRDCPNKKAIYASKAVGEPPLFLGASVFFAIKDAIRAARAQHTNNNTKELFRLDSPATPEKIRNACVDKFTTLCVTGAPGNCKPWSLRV

Consider `N#Cc1cn(-c2ccc(C(=O)O)cc2)cc1-c1ccccc1OCC(=O)O` [Example 158], for which inhibition under setting [1] was half-maximal at 5.1 nM (IC50).

For the molecule `Cn1cc(-c2cn(-c3ccc(C(=O)O)cc3)cc2C#N)c2ccccc21` [Example 251], under setting [1], the IC50 was determined as 23 nM.

Take `N#Cc1cn(-c2ccc(C(=O)O)cc2)cc1-c1ccc(O)cc1` [Example 148]: under setting [1], 2.5 nM corresponded to half-maximal inhibition (IC50).

Regarding `N#Cc1cn(-c2ccc(C(=O)O)cc2)cc1-c1cccn1-c1ccccc1` [Example 255], the IC50 under setting [1] is 10.1 nM.

Under “100 μM xanthine final”, `N#Cc1cn(-c2cc(C(=O)O)ccn2)cc1-c1ccc2c(c1)OCCO2` [Example 369] returned an IC50 of 9.7 nM.

With `N#Cc1cn(-c2ccc(C(=O)O)cc2)cc1-c1ccccc1OCc1cccs1` [Example 175], the midpoint of inhibition under setting [1], the IC50, lay at 27.7 nM.

Regarding `COCCOc1cn(-c2ccc(C(=O)O)cc2)cc1C#N` [Example 234], the IC50 under setting [1] is 4 nM.

Consider `N#Cc1cn(-c2ccc(C(=O)O)cc2)cc1-c1cccc(OCc2ccccc2)c1` [Example 156], for which the concentration for half-maximal inhibition (IC50) under setting [1] is 52.9 nM.

Molecule `N#Cc1cn(-c2ccc(C(=O)O)c(O)c2)cc1-c1ccccc1O` [Example 12, 4-[3-Cyano-4-(2-hydroxyphenyl)pyrrole-1-yl]-2-hydroxy benzoic acid] had an IC50 under setting [1] of 5.5 nM.

`N#Cc1cccc(-c2cn(-c3ccc(C(=O)O)c(O)c3)cc2C#N)c1` [Example 330] displayed an IC50 (100 μM xanthine final) of 19.9 nM.

On to `CSc1ccc(-c2cn(-c3ccc(C(=O)O)c(O)c3)cc2C#N)cc1` [Example 350], for which the midpoint of inhibition (100 μM xanthine final), the IC50, lay at 13.7 nM.

Under setting [1], `N#Cc1cn(-c2ccc(C(=O)O)cc2)cc1C(=O)N1CCOCC1` [Example 232] had an IC50 of 26.9 nM.

Under “100 μM xanthine final”, `N#Cc1cn(-c2ccc(C(=O)O)c(O)c2)cc1-c1cccc(C(F)(F)F)c1` [Example 281] registered an IC50 of 41.2 nM.

As for `Cc1ccccc1-c1cn(-c2ccc(C(=O)O)c(O)c2)cc1C#N` [Example 307], the IC50 (100 μM xanthine final) turned out to be 7.5 nM.

The molecule `N#Cc1cn(-c2ccc(C(=O)O)cc2)cc1OCc1ccccc1` [Example 18, 4-(3-Cyano-4-benzyloxypyrrole-1-yl)benzoic acid] had an IC50 under setting [1] of 7.1 nM.

Consider `CCCCc1c(C#N)cn(-c2ccc(C(=O)O)cc2)c1C` [Example 2, 4-(3-Butyl-4-cyano-2-methylpyrrole-1-yl)benzoic acid], for which half-maximal inhibition under setting [1] (IC50) required 17.1 nM.

Take `N#Cc1cn(-c2ccc(C(=O)O)c(O)c2)cc1-c1cc(F)cc(F)c1` [Example 271]: the IC50 under setting [1] came out at 15.1 nM.

The molecule `N#Cc1cn(-c2ccc(C(=O)O)cc2)cc1-c1ccc(OCCO)cc1` [Example 154] registered an IC50 under setting [1] of 4 nM.

`N#Cc1cn(-c2ccc(C(=O)O)c(O)c2)cc1-c1ccc(Cl)s1` [Example 313]: the IC50 (100 μM xanthine final) is 5.2 nM.

On to `COc1ccc(F)c(-c2cn(-c3ccc(C(=O)O)c(O)c3)cc2C#N)c1` [Example 284], for which the IC50 (100 μM xanthine final) came to 9.3 nM.

As for `N#Cc1cn(-c2ccc(C(=O)O)cc2)cc1-c1cccc(OCC(=O)O)c1` [Example 159], under setting [1], the IC50 was 2.7 nM.

In the case of `N#Cc1cn(-c2ccc(C(=O)O)c(O)c2)cc1-c1cccn1-c1ccccc1` [Example 304], the IC50 (100 μM xanthine final) was determined as 15.1 nM.

For the molecule `N#Cc1cn(-c2ccc(C(=O)O)cc2)cc1-c1ccccc1OCc1ccccc1C(F)(F)F` [Example 180], the IC50 under setting [1] is 255 nM.

`N#Cc1cn(-c2ccc(C(=O)O)cc2)cc1C(=O)c1ccccc1` [Example 224] gave an IC50 under setting [1] of 10.7 nM.

Under setting [1], `N#Cc1cn(-c2ccc(C(=O)O)c(O)c2)cc1-c1c(F)cccc1F` [Example 274] showed an IC50 of 5 nM.

`COc1ccc(-c2cn(-c3cc(C(=O)O)ccn3)cc2C#N)cc1` [Example 368]: where the note is “100 μM xanthine final”, the IC50 was found to be 13.3 nM.

Under setting [1], `N#Cc1cn(-c2ccc(C(=O)O)cc2)cc1-c1cccc(OCc2ccc(F)cc2)c1` [Example 191] came in with an IC50 of 90.3 nM.

Regarding `N#Cc1cn(-c2ccc(C(=O)O)cc2)cc1-c1cccc2ccccc12` [Example 209], the IC50 under setting [1] turned out to be 7.1 nM.

For the molecule `Cc1cccc(C)c1-c1cn(-c2ccc(C(=O)O)c(O)c2)cc1C#N` [Example 272], the IC50 under setting [1] stood at 10.1 nM.

In turn, `N#Cc1cn(-c2ccc(C(=O)O)cc2)nc1-c1csc2ccccc12` [Example 8, 4-(3-Benzo[b]thiophene-3-yl-4-cyanopyrazole-1-yl)benzoic acid] yielded an IC50 under setting [1] of 7.5 nM.

For `N#Cc1cn(-c2ccc(C(=O)O)c(O)c2)cc1-c1cccc(OCc2ccccc2)c1` [Example 333], the IC50 (100 μM xanthine final) came to 87.8 nM.

As for `Cc1c(F)cccc1-c1cn(-c2ccc(C(=O)O)c(O)c2)cc1C#N` [Example 275], it took 7.2 nM to reach half-maximal inhibition under setting [1] (IC50).

For `Cc1ccc(-c2cn(-c3ccc(C(=O)O)c(O)c3)cc2C#N)cc1` [Example 317], the IC50 (100 μM xanthine final) came out at 6.8 nM.

The molecule `N#Cc1ccn(-c2ccc(C(=O)O)c(O)c2)c1` [Example 358] displayed an IC50 (100 μM xanthine final) of 8.8 nM.

As for `CCCOc1ccc(-c2cn(-c3ccc(C(=O)O)c(O)c3)cc2C#N)cc1` [Example 342], the IC50 (100 μM xanthine final) was 35.9 nM.

For the setting “100 μM xanthine final”, `COc1ccc(-c2cn(-c3ccc(C(=O)O)c(O)c3)cc2C#N)cc1` [Example 316] showed an IC50 of 9 nM.

`N#Cc1cccc(-c2cn(-c3ccc(C(=O)O)cc3)cc2C#N)c1` [Example 211] showed an IC50 under setting [1] of 4.6 nM.

In turn, `N#Cc1cn(-c2ccc(C(=O)O)c(O)c2)cc1C(F)(F)F` [Example 300] gave an IC50 (100 μM xanthine final) of 7.9 nM.

For the molecule `N#Cc1cn(-c2ccc(C(=O)O)c(F)c2)cc1-c1ccccc1` [Example 208], under setting [1], inhibition was half-maximal at 5.2 nM (IC50).

On to `COc1ccc(-c2cn(-c3ccc(C(=O)O)c(O)c3)cc2C#N)cc1OC` [Example 285], for which, under “100 μM xanthine final”, half-maximal inhibition (IC50) was put at 3.9 nM.

Regarding `N#Cc1cn(-c2ccc(C(=O)O)cc2)cc1-c1cccc(Oc2ccccc2)c1` [Example 165], under setting [1], half-maximal inhibition (IC50) required 32.2 nM.

Molecule `COc1cn(-c2ccc(C(=O)O)c(O)c2)cc1C#N` [Example 282] gave an IC50 (100 μM xanthine final) of 5.3 nM.

`COCCN(C)C(=O)c1cn(-c2ccc(C(=O)O)cc2)cc1C#N` [Example 230] had an IC50 under setting [1] of 13 nM.

Where the note is “100 μM xanthine final”, `COc1ccc(-c2cn(-c3ccc(C(=O)O)c(O)c3)cc2C#N)c(C)c1` [Example 276] registered an IC50 of 7.7 nM.

For `Cc1ccccc1COc1ccccc1-c1cn(-c2ccc(C(=O)O)cc2)cc1C#N` [Example 167], the IC50 under setting [1] is 83.8 nM.

Molecule `Cc1c(CC(C)C)c(C#N)cn1-c1ccc(C(=O)O)cc1` [Example 242] had an IC50 under setting [1] of 9 nM.

On to `CC(=O)Nc1nn(-c2ccc(C(=O)O)cc2)cc1C#N` [Example 27, 4-(3-Acetylamino-4-cyanopyrazole-1-yl)benzoic acid], for which 7.1 nM corresponded to half-maximal inhibition under setting [1] (IC50).

As for `CCCCCCc1cn(-c2ccc(C(=O)O)cc2)cc1C#N` [Example 246], 8.9 nM corresponded to half-maximal inhibition under setting [1] (IC50).

Under setting [1], `N#Cc1cn(-c2ccc(O)c(C(=O)O)c2)cc1-c1ccccc1` [Example 22, 5-(3-Cyano-4-phenylpyrrole-1-yl)-2-hydroxy-benzoic acid] registered an IC50 of 120 nM.

`Cc1ccc(COc2ccccc2-c2cn(-c3ccc(C(=O)O)cc3)cc2C#N)cc1` [Example 169] displayed an IC50 under setting [1] of 56.8 nM.

Regarding `N#Cc1cn(-c2ccc(C(=O)O)cc2)cc1-c1cccc(OCCOc2ccccc2)c1` [Example 216], the IC50 under setting [1] was 20.9 nM.

For the setting “100 μM xanthine final”, `N#Cc1ccn(-c2ccc(C(=O)O)c(O)c2)n1` [Example 354] returned an IC50 of 66.7 nM.

For `N#Cc1cn(-c2ccc(C(=O)O)cc2)cc1CCc1ccccc1` [Example 207], under setting [1], the IC50 worked out at 3.8 nM.

`Cc1ccccc1-c1cn(-c2cc(C(=O)O)ccn2)cc1C#N` [Example 361] had an IC50 (100 μM xanthine final) of 88.5 nM.

`CC(C)(C)c1nn(-c2ccc(C(=O)O)c(O)c2)cc1C#N` [Example 352] had an IC50 (100 μM xanthine final) of 3.2 nM.
